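48-hour exposure; five concentrations; linearly interpolated endpoints. GI50: concentration for 50% inhibition of growth. At the TGI there is no net growth.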
Key:
Assay in all cases: NCI-60 cell line screen, 48 h
U251 CNS = system: U251 CNS
HCC-2998 colon = system: HCC-2998 colon
IGROV1 ovarian = system: IGROV1 ovarian
RXF 393 renal = system: RXF 393 renal
786-0 renal = system: 786-0 renal
MOLT-4 leukemia = system: MOLT-4 leukemia
OVCAR-3 ovarian = system: OVCAR-3 ovarian
NCI-H23 lung = system: NCI-H23 lung
NCI-H226 lung = system: NCI-H226 lung
NCI/ADR-RES ovarian = system: NCI/ADR-RES ovarian

| SMILES | TGI (U251 CNS) | TGI (HCC-2998 colon) | TGI (IGROV1 ovarian) | TGI (RXF 393 renal) | TGI (786-0 renal) | TGI (MOLT-4 leukemia) | TGI (OVCAR-3 ovarian) | TGI (NCI-H23 lung) | TGI (NCI-H226 lung) | TGI (NCI/ADR-RES ovarian) | GI50 (U251 CNS) | GI50 (HCC-2998 colon) | GI50 (IGROV1 ovarian) | GI50 (RXF 393 renal) | GI50 (MOLT-4 leukemia) | GI50 (NCI/ADR-RES ovarian) | GI50 (OVCAR-3 ovarian) | GI50 (NCI-H23 lung) | GI50 (NCI-H226 lung) |
| --- | --- | --- | --- | --- | --- | --- | --- | --- | --- | --- | --- | --- | --- | --- | --- | --- | --- | --- | --- |
| CC(C)=CCC/C(C)=C/COC(C)(C)C1=CCC(C)CC1 (stereo not drawn) (tested in a mixture with another compound) | > 100 µM | > 100 µM | > 100 µM | > 100 µM | > 100 µM | 36.2 µM | > 100 µM | > 100 µM |  |  |  |  |  |  |  |  |  |  |  |
| CC12CCC3C(CCC4CC(OC(=O)Cc5ccc(N(CCCl)CCCl)cc5)CCC43C)C1CCC(=O)N2 (stereo not drawn) | 28.4 µM | 41.6 µM | 31 µM | 28 µM | 28.8 µM | 24.4 µM | 32.1 µM | 25.8 µM | 30.1 µM |  |  |  |  |  |  |  |  |  |  |
| CC(C(=O)N1C(=O)N(C(=O)C(C)C(O)c2ccccc2)C2CCCCC21)C(O)c1ccccc1 (stereo not drawn) | > 100 µM |  | > 100 µM | > 100 µM | > 100 µM | 87.1 µM | > 100 µM | > 100 µM |  |  |  |  |  |  |  |  |  |  |  |
| CC(C)(C)OC(=O)NCCC(N)=S | > 100 µM |  | > 100 µM | > 100 µM | > 100 µM | > 100 µM | > 100 µM | > 100 µM | > 100 µM | > 100 µM |  |  |  |  |  |  |  |  |  |
| CSC(=Nc1ccccc1)N(c1ccccc1)c1nc(=[N+](C)C)ss1 | 17.2 µM | 20.7 µM | 12.8 µM | 12.7 µM | 19.3 µM | 7.54 µM | 4.83 µM | 19.8 µM |  |  |  |  |  |  |  |  |  |  |  |
| COc1c(O)c2c3c(c(C)cc(O)c3c1O)C(=O)C(O)(C(C)(C)C(C)=O)C2=O (stereo not drawn) | > 100 µM |  | > 100 µM | > 100 µM | > 100 µM | > 100 µM | > 100 µM | > 100 µM | 34.6 µM |  |  |  |  |  |  |  |  |  |  |
| COc1ccc(CC2c3c(cc(OC)c(OC)c3OC)CCN2C)cc1OC (stereo not drawn) | > 100 µM | > 100 µM |  |  | > 100 µM | > 100 µM | > 100 µM | > 100 µM |  |  |  |  |  |  |  |  |  |  |  |
| Cc1cn(-c2cc(C(=O)Nc3cccc(-n4ccc5c(NC(=O)c6ccccc6)nccc54)c3)cc(C(F)(F)F)c2)cn1 | 1.48 µM | 4.79 µM | 23 µM | 0.535 µM |  | 10.6 µM | 1.03 µM | 19.9 µM | 17.1 µM | > 33.4 µM | 0.29 µM | 0.862 µM | 0.6 µM | 0.202 µM | 0.531 µM | 1.13 µM | 0.313 µM | 1.06 µM | 0.524 µM |
| CC(=O)OCC1OC(n2cc(I)c(=O)[nH]c2=O)C(OC(C)=O)C(OC(C)=O)C1OC(C)=O (stereo not drawn) | > 100 µM | > 100 µM | > 100 µM | > 100 µM | > 100 µM | > 100 µM | > 100 µM | > 100 µM | > 100 µM |  |  |  |  |  |  |  |  |  |  |
| CCc1c[n+]([O-])c(C)cc1[N+](=O)[O-] | > 100 µM | 40.5 µM | > 100 µM | 60.9 µM | > 100 µM | > 100 µM | > 100 µM | > 100 µM |  | > 100 µM |  |  |  |  |  |  |  |  |  |
| C=C1c2cc3c(cc2CC12Cc1cc4c(cc1C2=O)CCC4)CCC3 (stereo not drawn) | > 100 µM | > 100 µM | > 100 µM | > 100 µM | > 100 µM | > 100 µM | > 100 µM | > 100 µM |  | > 100 µM |  |  |  |  |  |  |  |  |  |
| S=C(/N=c1\sc(Nc2ccc(Cl)cc2)nc2sc3c(c12)CCN(N1CCc2c(sc4nc(Nc5ccc(Cl)cc5)s/c(=N\C(=S)Nc5ccc(Cl)cc5)c24)C1)C3)Nc1ccc(Cl)cc1 | 61.9 µM |  | > 100 µM | 36.7 µM | 31.9 µM | > 100 µM | > 100 µM | > 100 µM | > 100 µM | > 100 µM |  |  |  |  |  |  |  |  |  |
| CCOC(=O)C(Cl)(Cl)/S(=N\S(=O)(=O)c1ccccc1)NC(=O)c1ccccc1 (stereo not drawn) | > 100 µM |  | > 100 µM | > 100 µM | > 100 µM | > 100 µM | > 100 µM | > 100 µM | > 100 µM | > 100 µM |  |  |  |  |  |  |  |  |  |
| CC1=NN(C(=O)CC(=O)Nc2ccccc2F)C(=O)C1N=Nc1ccccc1[N+](=O)[O-] (stereo not drawn) | > 100 µM |  | > 100 µM | > 100 µM | > 100 µM | > 100 µM | > 100 µM | > 100 µM | > 100 µM |  |  |  |  |  |  |  |  |  |  |
| CCC1=CC2CN3Cn4c(c(COCc5c6n(c7ccccc57)CN5CC7C=C(CC)C5C6(C(=O)OC)C7)c5ccccc54)C(C(=O)OC)(C2)C13 | > 100 µM |  | > 100 µM | > 100 µM | > 100 µM | > 100 µM | > 100 µM | > 100 µM | > 100 µM |  |  |  |  |  |  |  |  |  |  |
| N#CCc1nc(-c2ccccc2)n[nH]1 |  | > 100 µM | > 100 µM | > 100 µM | > 100 µM | > 100 µM | > 100 µM | > 100 µM |  | > 100 µM |  |  |  |  |  |  |  |  |  |
| Oc1[nH]c2ccc(Br)cc2c1N=NC(=S)Nc1ccc(F)cc1 | 18.5 µM |  | 23.2 µM | 13.2 µM | 22.4 µM | 29.6 µM | 29 µM | 6.96 µM | 40.1 µM | 6.63 µM |  |  |  |  |  |  |  |  |  |
| COc1ccc(S(=O)(=O)N2C(=O)CCC2C(=O)NN)cc1 (stereo not drawn) | > 100 µM | > 100 µM | > 100 µM |  | > 100 µM | > 100 µM | > 100 µM | > 100 µM | > 100 µM | > 100 µM |  |  |  |  |  |  |  |  |  |
| CC(=O)O/N=C/c1c2ccccc2cc2ccccc12 | > 100 µM |  |  | 86.2 µM |  | > 100 µM | > 100 µM | > 100 µM | > 100 µM | > 100 µM |  |  |  |  |  |  |  |  |  |
| CCCCNC(=S)N/N=C/c1cccc(C)n1 | > 100 µM |  | > 100 µM |  | > 100 µM | 55.1 µM | > 100 µM | > 100 µM | 62.2 µM | > 100 µM |  |  |  |  |  |  |  |  |  |
| CN(Cc1ccccc1)c1cc(=O)n(C)c(=O)[nH]1 | > 100 µM | > 100 µM |  |  | > 100 µM | > 100 µM | > 100 µM | > 100 µM | > 100 µM | > 100 µM |  |  |  |  |  |  |  |  |  |
| C/C1=C\CC[C@@]2(C)O[C@@H]2C[C@@H](C2(C)CO2)CC/C(C)=C/CC1 (stereo partly drawn) | 29.6 µM | 39.2 µM | > 100 µM |  | 31.8 µM | > 100 µM | 48.9 µM | 48.8 µM | 30.3 µM | 46.8 µM |  |  |  |  |  |  |  |  |  |
| N#CC1=C(c2ccccc2)NNC(c2ccc(Cl)cc2)CC1=O (stereo not drawn) | > 100 µM | > 100 µM |  | > 100 µM |  | > 100 µM |  | > 100 µM | 8.26 µM |  |  |  |  |  |  |  |  |  |  |

From PubChem BioAssay (NCI)
